# Measurements: PubChem BioAssay (NCI)
#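 Step 1: Grow cells in 96-well plates. Step 2: Expose to compound for 48 hours at 5 concentrations. Step 3: Interpolate endpoints linearly; if unreached, use highest concentration. TGI: total growth inhibition.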
# How the values were obtained:
# Assay in all cases: NCI anticancer screen, dose series, 48 h
# MOLT-4 leukemia = test system: MOLT-4 leukemia
# OVCAR-4 ovarian = test system: OVCAR-4 ovarian
# SW-620 colon = test system: SW-620 colon
# RPMI-8226 leukemia = test system: RPMI-8226 leukemia
# SR leukemia = test system: SR leukemia
# M14 melanoma = test system: M14 melanoma
# 786-0 renal = test system: 786-0 renal
# LOX IMVI melanoma = test system: LOX IMVI melanoma
# CCRF-CEM leukemia = test system: CCRF-CEM leukemia
# HL-60(TB) leukemia = test system: HL-60(TB) leukemia
# MALME-3M melanoma = test system: MALME-3M melanoma
# HOP-92 NSCLC = test system: HOP-92 NSCLC
# UACC-257 melanoma = test system: UACC-257 melanoma
# HT29 colon = test system: HT29 colon
# NCI-H226 lung = test system: NCI-H226 lung
# MDA-MB-435 = test system: MDA-MB-435
# SNB-19 CNS = test system: SNB-19 CNS
# DU-145 prostate = test system: DU-145 prostate
# UO-31 renal = test system: UO-31 renal
# PC-3 prostate = test system: PC-3 prostate
# K-562 leukemia = test system: K-562 leukemia
# A498 renal = test system: A498 renal
# SF-295 CNS = test system: SF-295 CNS
# NCI/ADR-RES ovarian = test system: NCI/ADR-RES ovarian
# EKVX NSCLC = test system: EKVX NSCLC
# NCI-H23 lung = test system: NCI-H23 lung
# TK-10 renal = test system: TK-10 renal
# SK-MEL-5 melanoma = test system: SK-MEL-5 melanoma
# HCC-2998 colon = test system: HCC-2998 colon
# HCT-116 colon = test system: HCT-116 colon
# ACHN renal = test system: ACHN renal
# BT-549 breast = test system: BT-549 breast
# SF-268 CNS = test system: SF-268 CNS
# SN12C renal = test system: SN12C renal
# A549 NSCLC = test system: A549 NSCLC
# HCT-15 colon = test system: HCT-15 colon
# HS 578T breast = test system: HS 578T breast
# NCI-H460 lung = test system: NCI-H460 lung
# MDA-N = test system: MDA-N
# IGROV1 ovarian = test system: IGROV1 ovarian
# RXF 393 renal = test system: RXF 393 renal
# SK-MEL-28 melanoma = test system: SK-MEL-28 melanoma
# SF-539 CNS = test system: SF-539 CNS
# U251 CNS = test system: U251 CNS
# OVCAR-8 ovarian = test system: OVCAR-8 ovarian
smiles,measurement,setting,value
CC(C)(C)OC(=O)C1C(=O)NC(=O)CC1CC(OCc1ccccc1)C(COCc1ccccc1)OCc1ccccc1 (stereo not given),TGI,MOLT-4 leukemia,13.1 µM
same,TGI,OVCAR-4 ovarian,> 100 µM
same,TGI,SW-620 colon,> 100 µM
same,TGI,RPMI-8226 leukemia,15.8 µM
same,TGI,SR leukemia,25 µM
same,TGI,M14 melanoma,> 100 µM
same,TGI,786-0 renal,> 100 µM
same,TGI,LOX IMVI melanoma,25.5 µM
same,TGI,CCRF-CEM leukemia,> 100 µM
same,TGI,HL-60(TB) leukemia,4.34 µM
same,TGI,MALME-3M melanoma,11.5 µM
same,TGI,HOP-92 NSCLC,46.2 µM
same,TGI,UACC-257 melanoma,53.4 µM
same,TGI,HT29 colon,14.3 µM
same,TGI,NCI-H226 lung,93.3 µM
same,TGI,MDA-MB-435,20.7 µM
same,TGI,SNB-19 CNS,> 100 µM
same,TGI,DU-145 prostate,80.6 µM
same,TGI,UO-31 renal,6.02 µM
same,TGI,PC-3 prostate,37.7 µM
same,TGI,K-562 leukemia,> 100 µM
same,TGI,A498 renal,> 100 µM
same,TGI,SF-295 CNS,> 100 µM
same,TGI,NCI/ADR-RES ovarian,82.8 µM
same,TGI,EKVX NSCLC,> 100 µM
same,TGI,NCI-H23 lung,45.7 µM
same,TGI,TK-10 renal,> 100 µM
same,TGI,SK-MEL-5 melanoma,27.5 µM
same,TGI,HCC-2998 colon,50.4 µM
same,TGI,HCT-116 colon,> 100 µM
same,TGI,ACHN renal,70.4 µM
same,TGI,BT-549 breast,32.8 µM
same,TGI,SF-268 CNS,> 100 µM
same,TGI,SN12C renal,> 100 µM
same,TGI,A549 NSCLC,> 100 µM
same,TGI,HCT-15 colon,39.1 µM
same,TGI,HS 578T breast,66.6 µM
same,TGI,NCI-H460 lung,> 100 µM
same,TGI,MDA-N,79.1 µM
same,TGI,IGROV1 ovarian,> 100 µM
same,TGI,RXF 393 renal,8.95 µM
same,TGI,SK-MEL-28 melanoma,> 100 µM
same,TGI,SF-539 CNS,39.8 µM
same,TGI,U251 CNS,24.8 µM
same,TGI,OVCAR-8 ovarian,> 100 µM
